Each structure is given as a SMILES string.

Holding throughout (format): in vivo, mouse
Experiment [1] is described as follows: Example 11 HFD mice: body fat reduction, white adipose tissue weight. Particulars: oral once daily 10 weeks, 50 mg/kg. As for the experimental part:
After adapting 8-week-old male C57b1/6 J mice to the basic diet (AIN-76A diet) for 2 weeks, and consuming Diet Induced Obesity Diet Formulas (D12451) 60 kcal % HFD diet for 2 weeks from 10 weeks of age, and then the test drug was administered when the average body weight reached 28 g or more. The animal breeding room environment of the mouse was maintained in a constant temperature (25±2° C.), constant humidity (50±5%) and a 12-hour photoperiod (light on 07:00˜19:00) in which the light and shade were controlled in an SPF environment. […] The test drug was dispersed in 0.5% Carboxymethyl cellulose (CMC) and administered in a volume of 0.2 ml, and the drug was administered orally by force into the stomach using a metal Zonde for oral administration.
After removing retroperitoneal white adipose tissue and intestines white adipose tissue of each experimental animal, the weight of adipose tissue was calculated.
(§1) Results obtained from various experiments are recorded as mean±standard error of mean (SEM), and significance verification is determined using the student's T-test analysis method. The data were analyzed using one-way ANOVA to determine a statistically significant variance between each group for each final point measured, and statistical significance between each group was determined using the nonparametric Mann-Whitney test and Dunnett's multiple comparison test (IBM SPSS statistics version 19.0 statistic software, Inc, IBM, USA).

Another experiment has as its system C/EBP-α mRNA. Nature of the experiment: Example 11 HFD mice: adipose tissue C/EBP-α mRNA analysis. Particulars: oral once daily 10 weeks, 50 mg/kg. As for the experimental part: After adapting 8-week-old male C57b1/6 J mice to the basic diet (AIN-76A diet) for 2 weeks, and consuming Diet Induced Obesity Diet Formulas (D12451) 60 kcal % HFD diet for 2 weeks from 10 weeks of age, and then the test drug was administered when the average body weight reached 28 g or more. The animal breeding room environment of the mouse was maintained in a constant temperature (25±2° C.), constant humidity (50±5%) and a 12-hour photoperiod (light on 07:00˜19:00) in which the light and shade were controlled in an SPF environment. […]
RNA was extracted from tissues using RNAsolB (Tel-Test) solution, and cDNA and real-time PCR analysis were performed using One-step SYBR Green PCR kit (AB science). […] Real time quantitative PCR was performed using the Applied Biosystems 7500 Real-Time PCR system (Applied Biosystems, USA).
as §1

The test system of a further experiment is PPAR-gamma mRNA. Description: Example 12 HFD mice: adipose tissue PPAR-gamma mRNA analysis. The note with it: adipose tissue of HFD mice, oral once daily for 10 weeks, chiisanogenin 50 mg/kg, Garcinia cambogia extract 200 mg/kg, combination 50 + 150 mg/kg, Met 50 mg/kg. As to the method:
The test drug was dispersed in 0.5% Carboxymethyl cellulose (CMC) and administered in a volume of 0.2 ml, and the drug was administered orally by force into the stomach using a metal Zonde for oral administration. RNA was extracted from tissues using RNAsolB (Tel-Test) solution, and cDNA and real-time PCR analysis were performed using One-step SYBR Green PCR kit (AB science). From the prepared cDNA, a FAM probe of [NT] ID NO: 16) sequence was used to amplify PPAR-gamma mRNA, and a VIC probe of [NT] ID NO: 15) sequence was used to amplify GAPDH mRNA as an intra control. Real time quantitative PCR was performed using the Applied Biosystems 7500 Real-Time PCR system (Applied Biosystems, USA). Results obtained from various experiments are recorded as mean±standard error of mean (SEM), and significance verification is determined using the student's T-test analysis method. The data were analyzed using one-way ANOVA to determine a statistically significant variance between each group for each final point measured, and statistical significance between each group was determined using the nonparametric Mann-Whitney test and Dunnett's multiple comparison test (IBM SPSS statistics version 19.0 statistic software, Inc, IBM, USA).

Regarding `CN(C)C(=N)N=C(N)N` [Met, Metformin], in experiment [1], the “Inhibition Rate (intestines WAT)” value was 46%, the “Inhibition Rate (retroperitoneal white adipose tissue)” value amounted to 12%, the “Intestines WAT” value worked out at 0.55 ± 0.05 g and the “Retroperitoneal white adipose tissue” value came to 0.89 ± 0.06 g. Besides, the “Inhibition Rate (C/EBP-α mRNA)” value in the experiment with C/EBP-α mRNA was 75%. The “C/EBP-α mRNA expression in adipose tissue” value in the experiment on C/EBP-α mRNA (GAPDH control) turned out to be 1.153 ± 0.320. For the same compound, the “PPAR-γ mRNA Inhibition Rate (%)” value with PPAR-gamma mRNA is 80%. In addition, in the experiment on PPAR-gamma mRNA (real-time PCR vs GAPDH), the “PPAR-γ mRNA, mean ± standard error” value stood at 1.235 ± 0.42.

The values are drawn from patent US12390505B2, “Composition for preventing or treating obesity or diabetes, comprising acanthopanax senticosus extract and garcinia cambogia extract or compound isolated therefrom” (KOREA RESEARCH INSTITUTE OF BIOSCIENCE AND BIOTECHNOLOGY, priority 2020, dated 2025).
